{"source": "patent US5550165A", "about": "“Pharmaceutical compositions for the treatment of hereditary tyosinemia type I” (Zeneca Limited, priority 1991, dated 1996)", "key": {"[1]": {"tested_on": "tyrosinaemia (type I) patients", "experiment": "Therapeutic evaluation in patients with tyrosinaemia (type I)", "type": "in vivo, human", "procedure": "Patients with an advanced form of the disease will be given the test composition (generally about 0.2-2.0 mg of active ingredient per kg body weight) orally. A blood sample will be taken daily during the first week and then less frequently at the discretion of the physician. Urine specimens will normally be collected daily. The indicators outlined below will be used to monitor the response to the test composition. The treatment will be maintained for up to 12 months if a clinically and biochemically satisfactory response is observed. If not, the dose of active ingredient administered will be increased stepwise to a maximum of about 2 mg/kg per day. Should any adverse indication occur, based on the biochemical monitoring or clinical assessment dosing will be stopped immediately.\nThe patients will be placed on a tyrosine-restricted diet with the aim of keeping plasma tyrosine concentrations below 500 μmol/L. A large increase in the tyrosine concentration in plasma is not expected to occur, but levels will be monitored throughout the dosing. Changes in the excretion of the biochemical markers mentioned below, such as succinylacetoacetate, succinylacetone and 5-aminolevulinic acid will be monitored, as will the effect on porphobilinogen synthase and α-fetoprotein concentration.\nTyrosine and Methionine--these amino acids will be determined in plasma by a standard technique using an amino-acid analyser.\nSuccinylacetoacetate and Succinylacetone--these compounds will be determined in urine by gas chromatography--mass spectrometry. Succinylacetone in plasma will be determined by measuring the inhibition of porphobilinogen synthase using a conventional assay.\n5-Aminolevulinic acid--this will be determined in urine by a conventional colorimetric assay.\nα-Fetoprotein--this will be determined in plasma by a conventional radioimmunoassay technique.\nPorphobilinogen synthase--this will be determined in erythrocytes using a conventional colorimetric assay.\nA patient was admitted to hospital after problems with slight nose bleedings and the parents noting swelling of the abdomen. Metabolic screening in hospital diagnosed tyrosinaemia (type I) based on the abnormal excretion of succinylacetone, succinylacetoacetate and 5-aminolevulinic acid in urine and a low activity of porphobilinogen synthase in erythrocytes. […] This was increased to 0.16 mg/kg b.w. after four days, and then to about 0.4 mg/kg by the end of the first 2 months, the dose being divided into two portions for morning and afternoon administration. The dose was then increased to about 0.6 mg/kg after a further 5 months."}, "[2]": {"experiment": "90 day oral toxicity in rhesus monkeys", "type": "in vivo", "details": "over 90 days, daily oral dose of 10 mg/kg"}, "[3]": {"tested_on": "tyrosinaemia (type I) patients", "experiment": "Therapeutic evaluation in patients with tyrosinaemia (type I)", "type": "in vivo, human", "remark": "listed apart in the source"}, "[4]": {"details": "Patient 1, capsule formulation, 0.08 increased to about 0.6 mg/kg b.w."}, "[5]": {"details": "Patient 3, capsule formulation 0.2 mg/kg b.w., after 5 months 0.6 mg/kg b.w."}, "[6]": {"details": "Patient 2, capsule formulation 0.2 mg/kg b.w."}, "[7]": {"details": "Patient 4, capsule formulation 0.2 mg/kg b.w., after 5 months 0.6 mg/kg b.w."}}, "data": [{"smiles": "O=C1CCCC(=O)C1C(=O)c1ccc(C(F)(F)F)cc1[N+](=O)[O-]", "note": "[the Compound, 2-(2-nitro-4-trifluoromethylbenzoyl)-1,3-cyclohexanedione]", "values": [{"measurement": "excretion of 5-aminolevulinic acid", "setting": "[1]; [4]", "result": "concomitant decrease"}, {"measurement": "porphobilinogen synthase activity in erythrocytes", "setting": "[1]; [4]", "result": "immediate increase"}, {"measurement": "overall clinical condition of the patient", "setting": "[1]; Patient 1, during the treatment period", "result": "improved markedly"}, {"measurement": "plasma succinylacetone levels", "setting": "[1]; Patient 1, immediate decrease, after about 30 days", "result": "to the limit of detection"}, {"measurement": "decrease of concentration of amino acids in urine", "setting": "[1]; Patient 1, very high before treatment, after treatment", "result": "5-10 times"}, {"measurement": "urinary levels of succinylacetone", "setting": "[1]; [5]", "result": "substantially lowered"}, {"measurement": "toxic or other adverse effects", "setting": "[2]", "result": "no significant toxic or other adverse effects"}, {"measurement": "serum α-fetoprotein concentration after dosing", "setting": "[3]; Patient 1, decreased from 7,200 μg/L during dosing", "result": 96, "unit": "µg/L"}, {"measurement": "excretion of succinylacetone and succinylacetoacetate after treatment", "setting": "[3]; Patient 1, urine, immediate decrease from 50 mmol/mol of creatinine", "result": "< 1 mmol/mol of creatinine"}, {"measurement": "methionine concentration in plasma", "setting": "[3]; Patient 1, very high initially, after start of treatment", "result": "dropped to normal levels very rapidly"}, {"measurement": "clinical position of the patient", "setting": "[3]; Patient 2, 0.2 mg/kg b.w.", "result": "improved"}, {"measurement": "serum levels of α-fetoprotein after treatment", "setting": "[3]; Patient 2, 0.2 mg/kg b.w., decreased from ca. 900 μg/L", "result": 40, "unit": "µg/L"}, {"measurement": "serum levels of succinylacetone", "setting": "[3]; [6]", "result": "decreased"}, {"measurement": "urinary levels of 5-aminolevulinic acid", "setting": "[3]; [6]", "result": "decreased"}, {"measurement": "urinary levels of succinylacetone", "setting": "[3]; [6]", "result": "decreased"}, {"measurement": "porphobilinogen synthase activity", "setting": "[3]; Patient 2, capsule formulation 0.2 mg/kg b.w., initial 3 month dosing period", "result": "increased to normal levels"}, {"measurement": "clinical position of the patient", "setting": "[3]; Patient 3, 0.2 then 0.6 mg/kg b.w.", "result": "improved"}, {"measurement": "serum levels of α-fetoprotein after treatment", "setting": "[3]; Patient 3, 0.2 then 0.6 mg/kg b.w., fell from ca. 900 μg/L", "result": 11, "unit": "µg/L"}, {"measurement": "plasma levels of succinylacetone", "setting": "[3]; [5]", "result": "substantially lowered"}, {"measurement": "urinary levels of 5-aminolevulinic acid", "setting": "[3]; [5]", "result": "substantially lowered"}, {"measurement": "clinical position of the patient", "setting": "[3]; Patient 4, 0.2 then 0.6 mg/kg b.w.", "result": "improved"}, {"measurement": "serum levels of α-fetoprotein after treatment", "setting": "[3]; Patient 4, 0.2 then 0.6 mg/kg b.w., fell from ca. 2000 μg/L", "result": 48, "unit": "µg/L"}, {"measurement": "plasma levels of succinylacetone", "setting": "[3]; [7]", "result": "substantially lowered"}, {"measurement": "urinary levels of 5-aminolevulinic acid", "setting": "[3]; [7]", "result": "substantially lowered"}, {"measurement": "urinary levels of succinylacetone", "setting": "[3]; [7]", "result": "substantially lowered"}]}]}
